Source: patent US4791130A, “Mitomycin derivatives as antileukemia agents” (priority 1986, dated 1988)
Values after ≈ are worked out from the molar mass of the structure shown. Like-named read-outs stand apart in the source and are kept apart here.

Legend:
in vivo [1] = conditions: mouse, ip
Text: (§1) In this table, C.I. denotes chemotherapeutic index, calculated as (LD50)/(ED50), wherein LD50 denotes the value of acute toxity, and ED50 denotes the dose of a sample which is capable of reducing the volume of Sarcoma 180 solid tumour to 50% of the corresponding volume of the solid tumour of untreated group.
(§2) 5×10^6 cells of Sarcoma 180 solid tumour were abdominally implanted into a ddy mouse. After 7 days, the cells were collected from the acsites fluid. The cells were washed once with physiological saline under sterile conditions and suspended in physiological saline to obtain a cell suspension containing 5×10^7 cells/ml, of which 0.1 ml was implanted into a ddy mouse (body weight 20±2 g) under the skin of the right armpit. The test compound was dissolved in physiological saline or the same solution containing Tween 80. 24 hours after implantation of the tumour cells, 0.1-0.2 ml of the solution containing the test compound was administered to the vein at the tail of each animal of the test group consisting of 5 animals. 7 days after the implantation, the major axis (a) and minor axis (b) of the tumour were measured to calculate the volume of the tumour as "a"×"b^2 "/2. The antitumour effect was indicated by T/C which is the ratio of the tumour volume in the test animals to the corresponding volume of the control (untreated) animals.
(§3) T/C ratios and the dose were respectively plotted on the ordinate using an arithmetic scale and on the abscissa using a logarithmic scale, the relationship between the dosage and the T/C ratio being converted to a straight line by the least squares method. From the straight tropic line thus-obtained, the dose corresponding to a T/C=0.5 viz. ED50 was determined.
Sarcoma 180 solid tumour cells (5×10^6) were subcutaneously implanted into the skin under the right armpit of each mouse (body weight 20±2 g) of a group consisting of 5 male mice (ddy strain). 24 hours later, a test compound was intraperitoneally administered to each animal. 4 days later, blood (0.02 ml) was collected from the suborbital plexus vein of each tumour-carrying animal. The collected sample of blood was dispersed in 9.98 ml of Cell-kit Seven solution. One drop of saponin solution was added to the sample to dissolve erythrocytes and then a microcell counter was used to measure the number of leucocytes. On graph paper, the number of leucocytes was plotted on the ordinate using an arithmetic scale, and the dosage was plotted on the abscissa using a logarithmic scale to plot the relationship of the dosage to the number of peripheral leucocytes, from which the value of WBC4000, viz. a value capable of giving 4000 peripheral leucocytes (about half of the corresponding value in normal mice) per mm^3, was obtained.

Hela S3 cultured cells = experiment: Effects upon Hela S3 cultured cells (cell count after 72 hours); format: cell-based; conditions: Homo sapiens
Protocol: Table 3 indicates the effects of typical Compounds (I) against Hela S3 culture cells In this Table, IC50 denotes the concentration of the test compound capable of reducing the number of the cells to 50% of the number of untreated cells.
The experiment was carried out in the following manner:
Cultured cells of Hela S3 were added to a MEM medium containing 10% (V/V) of bovine fetal serum and […] of glutamine to obtain a cell suspension of 3×10^4 cells/ml. The cell suspension was poured into each well (1 ml/well) of a multiplate having 24 wells for culturing at 37° C. in an incubator containing carbon dioxide (5%) and air (95%). After 24 hours, samples were dissolved or suspended in PBS, ethanol or dimethylsulfoxide were added to the medium at different concentrations,followed by culturing at 37° C. for 72 hours in the same incubator.
An aspirator was used to collect the medium from each well. The surface of each medium was washed by added PBS (1 ml) gently, and then PBS was sucked out. PBS containing trypsin (0.05%) and EDTA (0.02%) was poured into each well. After pipetting, the number of the cells in each suspension was counted by the use of a micro-cell counter (commercial product of Toa Iyo Denshi K.K., Japan). By reference to a curve showing the concentration vs. the number of the cells, IC50 (concentration of the sample capable of reducing the number of the cells to 50% on the basis of the number of control untreated cells) was measured.

Sarcoma 180 solid tumour = format: in vivo, ddy mouse; conditions: ddy mice, LD50 abdominal, ED50 single tail vein dose, tumour volume 7 days after implantation
Text: as §1
(§4) The test compound was abdominally administered once to ddy mice, each group consisting of 5 animals.
as §2, §3

in vivo [2] = conditions: mouse, ip, ddy mice, single abdominal administration, 14 days observation, Behrens-Korber's method
Text: as §4

Row | Compound | selectivity ratio (in vivo [1]) | IC50 (Hela S3 cultured cells; HeLa S3, 72 h) [ng/mL] | C.I. (chemotherapeutic index, LD50/ED50) (Sarcoma 180 solid tumour) | LD50 at 336 h (in vivo [2]) [mg/kg] | IC50 (Hela S3 cultured cells; Hela S3 cells, 72 hours at 37° C., concentration reducing cell number to 50% of untreated, read-out: IC50) [ng/mL]
1 | CON=C1C(=O)C2=C(C(=O)C1C)N1C[C@@H]3N[C@@H]3[C@]1(OC)[C@@H]2COC(N)=O (stereo partly drawn) [Example 1, [1aS-(1aα,8β,8aα,8bα)]-8-{[(aminocarbonyl)oxy]methyl}-8a-methoxy-6-[(methoxy)imino]-5-methyl-1,1a,2,5,6,8,8a,8b-octahydro-azirino-[2',3':3,4]pyrrolo[1,2-a]indole-4,7-dione] | 0.5 | 12 (≈ 0.0329 µM) | 0.7 | 37.5 | –
2 | CO[C@@]12[C@H](COC(N)=O)C3=C(C(=O)C(C)C(=NOCC(C)C)C3=O)N1C[C@@H]1N[C@@H]12 (stereo partly drawn) [Example 2, [1aS-(1aα, 8β, 8aα, 8bα)]-8-{[(aminocarbonyl)oxy]methyl}-6-[(isobutyloxy)imino]-8a-methoxy-5-methyl1,1a,2,5,6,8,8a,8b-octahydro-azirino[2',3':3,4]pyrrolo[1,2-a]indole-4,7-dione] | 1.9 | 3 (≈ 0.00738 µM) | 3.6 | 18.8 | –
3 | CCC(C)ON=C1C(=O)C2=C(C(=O)C1C)N1C[C@@H]3N[C@@H]3[C@]1(OC)[C@@H]2COC(N)=O (stereo partly shown) [Example 3] | 2.4 | 1 (≈ 0.00246 µM) | 3.1 | 18.8 | –
4 | CCCCON=C1C(=O)C2=C(C(=O)C1C)N1C[C@@H]3N[C@@H]3[C@]1(OC)[C@@H]2COC(N)=O (stereo partly shown) [Example 4] | 0.9 | 6 (≈ 0.0148 µM) | 2.7 | 18.8 | –
5 | CO[C@@]12[C@H](COC(N)=O)C3=C(C(=O)C(C)C(=NOCC(C)C)C3=O)N1C[C@H]1[C@@H]2N1C (stereo partly drawn) [Example 5, [1aS-(1aα, 8β, 8aα, 8bα)]-8-{[(aminocarbonyl)oxy]methyl}-1,5-dimethyl-6-[(isobutyloxy)imino]8a-methoxy-1,1a,2,5,6,8,8a,8b-octahydro-azirino [2',3': 3,4]pyrrolo[1,2-a]indole-4,7-dione] | 1.4 | – | 3.4 | 60 | –
6 | CC(C)CON=C1C(=O)C2=C(C(=O)C1C)N1C[C@H]3[C@H](N3C)[C@]1(O)[C@H]2COC(N)=O (stereo partly shown) [Example 6] | – | 30 (≈ 0.0738 µM) | – | – | –
7 | CO[C@@]12[C@H](CO)C3=C(C(=O)C(C)C(=NOCC(C)C)C3=O)N1C[C@@H]1N[C@@H]12 (stereo partly drawn) [Example 7, [1aS-(1aα, 8β, 8aα, 8bα)]-8-hydroxymethyl-6-[(isobutyloxy)imino] -8a-methoxy-5-methyl-1,1a, 2,5,6,8,8a,8b-octahydro-azirino [2',3':3,4]pyrrolo[1,2-a] indole-4,7-dione] | – | 3 (≈ 0.00826 µM) | – | – | –
8 | CO[C@@]12[C@H](COC(N)=O)C3=C(C(=O)C(C)=C(N)C3=O)N1C[C@@H]1N[C@@H]12 [Mitomycin C, reference compound] | – | – | – | – | 4 (≈ 0.012 µM)
